# Measurements: US20230305023A1, “METHODS OF TREATMENT AND DIAGNOSTIC OF PATHOLOGICAL CONDITIONS ASSOCIATED WITH INTENSE STRESS” (INSERM (INSTITUT NATIONAL DE LA SANTÉ ET DE LA RECHERCHE …, priority 2020, published 2023)
# Entries after “also recorded” stand apart in the source; their conditions may differ.
# T1: mouse PAI-1 (Mus musculus, UniProt P22777)
# T1 sequence (P22777 23-402): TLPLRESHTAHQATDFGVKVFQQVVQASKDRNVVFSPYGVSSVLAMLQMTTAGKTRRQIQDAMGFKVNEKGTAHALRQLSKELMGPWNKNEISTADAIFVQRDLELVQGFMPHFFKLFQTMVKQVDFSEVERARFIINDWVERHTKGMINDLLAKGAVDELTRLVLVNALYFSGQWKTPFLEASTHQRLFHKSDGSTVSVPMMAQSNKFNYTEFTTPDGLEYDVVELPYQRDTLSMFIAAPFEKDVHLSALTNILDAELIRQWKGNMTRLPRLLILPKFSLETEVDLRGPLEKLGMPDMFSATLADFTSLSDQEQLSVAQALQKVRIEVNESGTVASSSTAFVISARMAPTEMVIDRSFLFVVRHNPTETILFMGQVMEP
# T2: rat PAI-1 (Rattus norvegicus, UniProt P20961)
# T2 sequence (P20961 24-402): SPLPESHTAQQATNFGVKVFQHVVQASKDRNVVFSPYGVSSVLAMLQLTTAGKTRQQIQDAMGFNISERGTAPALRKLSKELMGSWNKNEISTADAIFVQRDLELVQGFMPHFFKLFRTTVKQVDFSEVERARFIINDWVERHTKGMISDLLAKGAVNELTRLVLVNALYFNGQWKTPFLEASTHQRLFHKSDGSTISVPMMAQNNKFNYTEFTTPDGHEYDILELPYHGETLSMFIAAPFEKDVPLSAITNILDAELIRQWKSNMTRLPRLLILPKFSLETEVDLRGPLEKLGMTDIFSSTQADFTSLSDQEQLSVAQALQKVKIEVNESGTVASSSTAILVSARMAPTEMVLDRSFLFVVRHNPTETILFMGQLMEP
# B1: mature BDNF: recombinant human BDNF, CAS 218441-99-7 (protein, UniProt P23560 19-247, looked up)
# Neurotrophic factor BDNF …: APMKEANIRGQGGLAYPGVRTHGTLESVNGPKAGSRGLTSLADTFEHVIEELLDEDQKVRPNEENNKDADLYTSRVMLSSQVPLEPPLLFLLEEYKNYLDAANMSMRVRRHSDPARRGELSVCDSISEWVTAADKKTAVDMSGGTVTVLEKVPVSKGQLKQYFYETKCNPMGYTKEGCRGIDKRHWNSQCRTTQSYVRALTMDSKKRIGWRFIRIDTSCVCTLTIKRGR
# Key:
# [1] = target: PAI-1 (Homo sapiens, UniProt P05121); conditions: dual mechanism of action; cited from earlier work
# [2] = tested on: C57BL/6J mice; experiment: Adaptive vs maladaptive (PTSD-like) fear memory, fear conditioning procedure; format: in vivo
# From the text: Surgical procedure. Male C57BL/6J mice {n=20 in Experiment 1 (FIGS. 3a-d), n=75 in Experiment 2 (FIG. 4), n=40 in Experiment 3 (FIGS. 5a-d) and n=48 in Experiment 4 (FIGS. 5e-h)} 3-4 months old (Charles River Laboratory, France) were used. Mice were surgically-implanted bilaterally 1 mm above the dorsal hippocampus (A/P, -2 mm; M/L, ±1.3 mm; D/V, 0.9 mm; relative to dura and bregma) following to Franklin and Paxinos’s mouse brain atlas (25) then allowed to recover for 8 days before the behavioral experiments.
# Adaptive vs maladaptive (PTSD-like) fear memory. […] In contrast, Cort-injected mice will display a maladaptive (PTSD-like) memory attested by an abnormally high fear response to the irrelevant tone (cue-based hypermnesia) together with a decreased conditioned fear to the conditioning context (contextual amnesia) (5). • Memory tests - After fear conditioning, each animal was returned to its home cage and 24 h later, all mice were submitted to two memory tests during which freezing behavior, defined as a lack of any movement except for respiratory-related movements (29), was measured and used as an index of conditioned fear.
# Drug injections. Immediately after the acquisition of fear conditioning, mice were randomly divided into groups firstly according to first their systemic injection of Cort and secondly their specific intra-hippocampal infusion. […] Vehicle (NaCl 0.9%, n=8), 2. […] Vehicles (aCSF + NaCl 0.9%, n=15), 2. […] Vehicles (aCSF + NaCl 0.9%, n=8), 2. […] Vehicles (aCSF + DMSO, n=12), 2.
# PAI-1 and BDNF were diluted in artificial CSF (aCSF) and Tiplaxtinin in 1.6 % dimethyl sulfoxide (DMSO) and then diluted in aCSF. Bilateral infusions of 0.3 µl/side were administered into the dorsal hippocampus immediately after acquisition of fear conditioning at a constant rate (0.1 µl/min).
# [3] = tested on: rats; conditions: cited from earlier work
# [4] = cited from earlier work
# [5] = tested on: nonhuman primates; conditions: cited from earlier work
# [6] = tested on: TGF-B1-induced lung fibrosis; conditions: in vivo; cited from earlier work
# [7] = in vivo; cited from earlier work
# [8] = tested on: dorsal hippocampal slices; experiment: Protein expression in dorsal hippocampal slices incubated with corticosterone (western blot); format: cell-based, Sprague-Dawley rats
# Description: Briefly, adult male Sprague-Dawley rats (2-3 months old n=18, Charles River Laboratory, France) were used. Rats were then anesthetized with isoflurane and transcardially perfused with nearly frozen modified artificial cerebrospinal fluid (CSF) with 3 mM kynurenic acid. The modified CSF for perfusion contained: (in mM) 87 NaCl, 75 Sucrose, 25 Glucose, 5 KCl, 21 MgCl2, 0.5 CaCl2 and 1.25 NaH2PO4. After perfusion, the brains were quickly removed and sliced (300 µm) in the coronal plane using a vibratome (Campden Instruments, UK). Immediately after cutting, slices were stored for 40 min at 32° C. in CSF ((in mM): 130 NaCl, 11 Glucose, 2.5 KCl, 2.4 MgCl2, 1.2 CaCl2, 23 NaHCO3, 1.2 NaH2PO4), equilibrated with 95% O2 / 5% CO2 then stored at room temperature for the rest of the experiment. […] Dorsal hippocampi were isolated, and proteins were extracted as previously described (14;16).
# Protein extraction from brain tissues and immunoblotting analysis. A detailed description of protein extraction and immunoblotting analysis has been reported previously (14-16;20;21). Briefly, protein sample extracts from PC12 cells and mouse and rat hippocampi were performed in RIPA buffer containing protease and phosphatase inhibitors (#P8340 and #P0044, Sigma, USA) before being subjected to immunoblotting experiments. […] Rabbit polyclonal anti-PAI-1 antibodies were from Lifespan Biosciences (LSBio#C81062, 1/1000, WA, USA) and Epitomics (#3917-1, 1/3000, CA, USA), anti-tPA (#T5600-05G; 1/5000) was from US Biologicals (MA, USA), anti-Erk1/2^MAPK (#06-182; 1/50000) was from Millipore (MA, USA), anti-Phospho-Erk1/2^MAPK (#9101S; 1/1000) was from CST (MA, USA). Rabbit monoclonal antibodies anti-Phospho-Erk1/2^MAPK (#4370; 1/5000) was from CST (MA, USA), anti-Phospho-TrkB (#2149-1; 1/5000) was from Epitomics (CA, USA), anti-TrkB (#610101; 1/2000) was from BD Biosciences (NJ, USA). Mouse monoclonal anti-Neuronal Class III β-Tubulin (TUJ1) (#MMS-435P; 1/20000) was from Eurogentec (Belgium), anti-α-tubulin (#N356, 1/50000) was from Amersham Life Sciences (Del, USA). CST provided secondary antibodies: anti-rabbit IgG, HRP-linked antibody (#7074, 1/5000) and anti-mouse IgG, HRP-linked antibody (#7076, 1/20000). In all experiments, βIII-tubulin or α-tubulin measures were used as a loading control. X-Ray films (Kodak, USA) were quantified by densitometry (optical density; OD) using a GS-800 scanner coupled with Quantity One software (Bio-Rad, CA, USA).
# [9] = tested on: PC12 cells; experiment: PAI-1 expression in PC12 cells treated with corticosterone (qPCR, western blot); format: cell-based, rat; conditions: Cort 100 and 1000 nM, 3 h
# Description: Chemicals. […] Millipore (USA) provided the recombinant human BDNF (CAS Nb 218441-99-7, #GF029, 100 ng/side) and tPA inhibitor; stable recombinant mutant of human Type 1 Plasminogen Activator Inhibitor (PAI-1; CAS Nb: 140208-23-7, #528208, ranging from 30 to 240 ng/side) (16;18). The small-molecule inhibitor of PAI-1 activity Tiplaxtinin (PAI-039; CAS Nb: 393105-53-8, #1383, 5 ng/side) was provided by Axon MEDCHEM (The Netherlands).
# Cell culture. PC12 cell line (ATCC CRL-1721) derived from a transplantable rat pheochromocytoma was used (14;16). […]
# Quantitative PCR analysis. […] RNA was processed and analyzed using an adapted version of published methods (23). cDNA was synthesized from 2 µg of total RNA using RevertAid Premium Reverse Transcriptase (Fermentas, Thermo Fisher Scientific, USA) and primed with oligo-dT primers (Fermentas, Thermo Fisher Scientific, USA) and random primers (Fermentas, Thermo Fisher Scientific, USA). qPCR was perfomed using a LightCycler® 480 Real-Time PCR System (Roche, Meylan, France). qPCR reactions were done in duplicate for each sample, using transcript-specific primers, cDNA (4 ng) and LightCycler 480 SYBR Green I Master (Roche) in a final volume of 10 µl. The PCR data were exported and analyzed in a computer-based tool (Gene Expression Analysis Software Environment) developed at the Neurocentre Magendie (France). […]
# [10] = tested on: rat; conditions: in vivo; cited from earlier work
# [11] = target: T1, mouse PAI-1; conditions: cited from earlier work
# [12] = tested on: rat; conditions: cited from earlier work
# [13] = target: T2, rat PAI-1; conditions: cited from earlier work
# [14] = tested on: plasminogen activator inhibitor type 1 (PAI-1); conditions: in vivo; cited from earlier work
# Sequence of PAI-1 (P05121 24-402, species assumed): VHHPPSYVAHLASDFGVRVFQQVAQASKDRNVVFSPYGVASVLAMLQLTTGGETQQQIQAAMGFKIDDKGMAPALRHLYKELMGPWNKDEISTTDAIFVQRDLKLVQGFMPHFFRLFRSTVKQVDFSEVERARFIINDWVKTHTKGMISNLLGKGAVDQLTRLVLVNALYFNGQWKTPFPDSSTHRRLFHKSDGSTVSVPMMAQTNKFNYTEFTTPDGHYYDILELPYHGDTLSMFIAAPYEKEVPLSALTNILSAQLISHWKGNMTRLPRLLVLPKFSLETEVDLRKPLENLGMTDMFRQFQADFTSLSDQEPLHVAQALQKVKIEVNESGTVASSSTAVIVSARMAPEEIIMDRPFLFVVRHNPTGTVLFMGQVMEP
molecule,measurement,setting,value
"CCCCCc1c(-c2ccc3cc(OCc4nnn[nH]4)ccc3c2)n(Cc2ccccc2)c2ccccc12 [PAI-749, 1-benzyl-3-pentyl-2[-(1H-tetrazol-5-ylmethoxy)naphthalene-2-yl]-1Hindole]",PAI-1 activity,[1],neutralize PAI-1 activity
"O=C(O)C(=O)c1cn(Cc2ccccc2)c2ccc(-c3ccc(OC(F)(F)F)cc3)cc12 [Tiplaxtinin, 1H-indole-3-acetic acid, a-oxo-1-(phenylmethyl)-5-(4-trifluoromethoxyphenyl)]",appearance of PTSD-like memory in Cort-treated animals,"[2]; Tiplaxtinin 5 ng/side intra-hippocampal immediately after conditioning, Cort 2 mg/kg i.p., freezing tested 24 h later",prevented the appearance of PTSD-like memory; also recorded: normalizes traumatic memory
O=C(COCC(=O)N1CCN(C(c2ccccc2)c2ccccc2)CC1)Nc1ccc(Cl)cc1C(=O)[O-].[Na+] [TM5275],antithrombotic ability,[3],effective antithrombotic ability
same,oral pharmacokinetic profile,[4],improved oral pharmacokinetic properties
same,antithrombotic ability,[5],effective antithrombotic ability
same,TGF-B1-induced lung fibrosis,[6],blocks
CNCCC(Oc1ccc(C(F)(F)F)cc1)c1ccccc1 (stereo not drawn) [fluoxetine],benefit in PTSD over placebo,[7],small to modest benefit
"C[C@]12C[C@H](O)[C@H]3[C@@H](CCC4=CC(=O)CC[C@@]43C)[C@@H]1CC[C@@H]2C(=O)CO [Cort, corticosterone]","tPA, P-TrkB and P-Erk1/2MAPK proteins","[8]; Cort 10 nM, 1 h after treatment",increase
same,PAI-1 protein,"[8]; Cort 10 nM, 3 h after treatment",increase
same,PAI-1 protein,"[8]; Cort 1000 nM, 1 h after treatment",early increase
same,"tPA, P-TrkB and P-Erk1/2MAPK proteins","[8]; Cort 1000 nM, after 3 h treatment",suppression of the increase
same,expression of PAI-1 mRNA,[9]; qPCR,strongly increased
same,expression of PAI-1 protein,[9]; western blot,strongly increased
same,PTSD-like memory impairments,[2]; Cort 2 mg/kg i.p. immediately after conditioning,PTSD-like memory impairments appeared
O=C(CCCCC(=O)Nc1scc(-c2cccs2)c1C(=O)O)Nc1scc(-c2cccs2)c1C(=O)O [TM5007],oral pharmacokinetic profile,[4],not ideal
"O=C1S/C(=C\c2cc(O)c(O)c(O)c2)C(=O)N1Cc1ccc(Cl)c(Cl)c1 [IMD-1622, 3-(3,4-dichlorobenzyl)-5-(3,4,5-trihydroxy-benzylidene)-thiazolidine-2,4-dione]",rat autoimmune myocarditis,[10],suppresses
same,activity of mouse PAI-1,[11],inhibit
same,thrombus weight,[12]; compared to control,decreased
same,intimal thickening,"[12]; rat, in vivo",suppressed
same,activity of rat PAI-1,[13],inhibit
COc1ccc(C(CN(C)C)C2(O)CCCCC2)cc1 (stereo not drawn) [venlafaxine],benefit in PTSD over placebo,[7],small to modest benefit
Defibrotide,circulating levels of plasminogen activator inhibitor type 1 (PAI-1),[14],reduces
Fc1ccc([C@@H]2CCNC[C@H]2COc2ccc3c(c2)OCO3)cc1 [paroxetine],benefit in PTSD over placebo,[7],small to modest benefit
B1,reversal of the effect of PAI-1 on fear memory,"[2]; mature BDNF 100 ng/side concomitant with PAI-1 240 ng/side, intra-hippocampal",completely reversed
